Measurements published in patent publication US20260337211A1, “IP5 SUBSTITUTED COMPOUNDS” (SANIFIT THERAPEUTICS, S.A., priority 2022, published 2026).
Counter-ions that a name gives are not always drawn.

test: In vitro inhibition of calcium phosphate crystallization in human plasma (spectrophotometric, 550 nm); assay type: biochemical; settings: 0-100 μM compound, 1.5 mM phosphate and 12.5 mM calcium, pH 7.4, 30 min at rt, slope between 6 and 24 min, 30 min, read-out: Relative Potency (EC50)
Procedure: The in vitro efficacy of the IP5 substituted compounds (e.g., Compounds 1 to 32) of the invention on the inhibition of calcium phosphate crystallization in human plasma samples was evaluated according to a spectrophotometric assay previously described in the art (Ferrer M, et al., Sci Rep 2017; 7:6858, doi:10.1038/s41598-017-07203-x).
A 96-well plate was employed. Plasma was spiked (1 volume of the IP5 substituted compounds of the invention per 19 volumes of plasma) with increasing concentrations of the derivatives in the range of 0-100 μM. Plasma was then centrifuged at 10,000 g at rt and subsequently mixed with a mixture of 5 mM hydrogen phosphate and 41.67 mM calcium to attain final concentrations of 1.5 mM phosphate and 12.5 mM calcium, respectively. All reagent solutions were filtered, and pH adjusted to 7.4.
Crystallization of calcium phosphate was monitored spectrophotometrically for 30 min at rt by measuring the increments in absorbance at 550 nm using the Biotek Powerwave XS Microplate spectrophotometer (BioTek Instruments, Inc., Winooski, VT, US). The plate was incubated at rt in an orbital shaker and absorbance measured every 3 min.
Plasma crystallization was assessed based on slope measurement in the linear range between 6 and 24 min from plots of increase in absorbance versus logarithm of time. The efficacy of different myo-inositol phosphates derivatives in preventing in vitro formation of calcium phosphate crystals was assessed in human plasma samples using the slopes obtained between 6- and 24-min. Inhibition of crystallization was measured by comparing the slopes of the control sample (blank plasma) with those of samples containing the inhibitor as shown below: […]

| EC50 | Compound |
| --- | --- |
| 5 to 10 µM | O=P(O)(O)OC1C(OCCCCCC(F)(F)F)C(OP(=O)(O)O)C(OP(=O)(O)O)C(OP(=O)(O)O)C1OP(=O)(O)O (racemic) [Compound 50, rac-1-O-(6,6,6-Trifluorohexyl)-myo-inositol-2,3,4,5,6-pentakis(phosphate) decasodium salt] |

same assay, conditions: 0-100 μM compound, 1.5 mM phosphate and 12.5 mM calcium, pH 7.4, 30 min at rt, slope between 6 and 24 min, read-out: Relative Potency (EC50)

| Compound | EC50 |
| --- | --- |
| NC(=O)CCCCCO[C@H]1[C@@H](OP(=O)(O)O)[C@H](OP(=O)(O)O)[C@@H](OP(=O)(O)O)[C@H](OP(=O)(O)O)[C@H]1OP(=O)(O)O [Compound 37, 2-O-(6-Amino-6-oxohexyl)-myo-inositol-1,3,4,5,6-pentakis(phosphate) decasodium salt] | 5 to 10 µM |
| rac-4-O-Pentyl-myo-inositol-1,2,3,5,6-pentakis(phosphate) decasodium salt [Compound 1] | ≤ 5 µM |
| rac-4-O-(6-(4-(carboxy)-1H-1,2,3-triazol-1-yl)hexyl)-myo-inositol-1,2,3,5,6-pentakis(phosphate) undecasodium salt [Compound 26] | > 10 µM |
| 2-O-(5-Acetamidopentyl)-myo-inositol-1,3,4,5,6-pentakis(phosphate) decasodium salt [Compound 35] | > 10 µM |
| O=P(O)(O)OC1C(OCCCc2cccc(C(F)(F)F)c2)C(OP(=O)(O)O)C(OP(=O)(O)O)C(OP(=O)(O)O)C1OP(=O)(O)O (racemic) [Compound 15, rac-4-O-(3-(3-(Trifluoromethyl)phenyl)propyl)-myo-inositol-1,2,3,5,6-pentakis(phosphate) decasodium salt] | 5 to 10 µM |
| O=P(O)(O)OC1C(OCCC2CCCC2)C(OP(=O)(O)O)C(OP(=O)(O)O)C(OP(=O)(O)O)C1OP(=O)(O)O (racemic) [Compound 16, rac-4-O-(2-Cyclopentylethyl)-myo-inositol-1,2,3,5,6-pentakis(phosphate) decasodium salt] | ≤ 5 µM |
| 5-O-(9-Methoxypentyl)-myo-inositol-1,2,3,4,6-pentakis(phosphate) decasodium salt [Compound 44] | 5 to 10 µM |

Now from value to compound:

| EC50 | Compound |
| --- | --- |
| 5 to 10 µM | 2-O-((1-(2-Carboxyethyl)-1H-1,2,3-triazol-4-yl)methyl)-myo-inositol-1,3,4,5,6-pentakis(phosphate) undecasodium salt [Compound 42] |
| ≤ 5 µM | rac-1-O-(2-Cyclopropylethyl)-myo-inositol-2,3,4,5,6-pentakis(phosphate) decasodium salt [Compound 48] |
| 5 to 10 µM | O=P(O)(O)OC1C(OCCC2CC2)C(OP(=O)(O)O)C(OP(=O)(O)O)C(OP(=O)(O)O)C1OP(=O)(O)O (racemic) [Compound 17, rac-4-O-(2-Cyclopropylethyl)-myo-inositol-1,2,3,5,6-pentakis(phosphate) decasodium salt] |
| 5 to 10 µM | rac-1-O-(5-Acetamidopentyl)-myo-inositol-2,3,4,5,6-pentakis(phosphate) decasodium salt [Compound 49] |
| ≤ 5 µM | rac-4-O-(5-Hydroxypentyl)-myo-inositol-1,2,3,5,6-pentakis(phosphate) decasodium salt [Compound 2] |
| 5 to 10 µM | 5-O-Propyl-myo-inositol-1,2,3,4,6-pentakis(phosphate) decasodium salt [Compound 29] |
